Read-outs that look alike come from different tables or passages of the source.
Columns and labels:
[1] = target: T1, H1 receptor (Homo sapiens, UniProt P35367); assay: Histamine-stimulated IL-6 production in HUVEC cells (RT-PCR); assay type: cell-based; details: for Anti-histamine activity (IL-6 production assay), in words: 10^−5 M; for Histamine-stimulated IL-6 production reduced to fraction of that observed with histamine stimulation: ethopropazine concentration 10^−4 M
T1 construct: endogenous in cells; host or cells: HUVEC
T1 sequence (P35367 whole entry): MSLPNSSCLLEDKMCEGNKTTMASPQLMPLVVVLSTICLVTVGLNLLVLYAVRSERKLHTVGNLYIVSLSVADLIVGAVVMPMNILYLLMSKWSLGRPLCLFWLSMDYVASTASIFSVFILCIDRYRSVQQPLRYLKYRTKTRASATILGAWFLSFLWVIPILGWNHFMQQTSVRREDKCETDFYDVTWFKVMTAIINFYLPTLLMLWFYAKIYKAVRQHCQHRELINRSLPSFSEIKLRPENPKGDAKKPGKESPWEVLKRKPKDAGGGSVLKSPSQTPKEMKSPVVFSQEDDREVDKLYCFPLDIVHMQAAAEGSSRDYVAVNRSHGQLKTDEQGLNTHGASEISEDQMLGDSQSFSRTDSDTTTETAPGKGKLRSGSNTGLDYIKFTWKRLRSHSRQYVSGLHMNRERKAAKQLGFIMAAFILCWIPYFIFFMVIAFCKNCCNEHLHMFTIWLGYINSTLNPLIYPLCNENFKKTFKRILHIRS
Experimental: In the present studies, HUVEC cells were plated and grown to confluence in 6-well plates. […] The total RNA was isolated using Tri-reagent and subjected to reverse transcription polymerase chain reaction (RT-PCR™) analysis of IL-6 production using semi-quantitative analysis against HPRT expression (control gene).

[2] = test system: ovariectomized rats (OVX); details: OVX + PROM rats, cited from earlier work
[3] = post-menopausal women, 50 mg/day promethazine associated with estrogens; cited from earlier work
[4] = test system: osteoclasts; assay: Osteoclast resorption assay on mammoth tusk slices; assay type: cell-based
Experimental: During this time, osteoclasts mature and degrade bone matrix. At the end of the incubation period, cells are removed, the specimen examined by SEM and the absorption area/slice is quantitated versus control (untreated) slices.

[5] = Cytotoxicity testing of promethazine enantiomers; assay type: cell-based
[6] = test system: osteoclasts; assay: CalciFluor assay (OsteoAssay): calcium released by osteoclast-mediated resorptive activity; assay type: cell-based
Source text: A CalciFluor assay is used to measure the calcium that is released as a result of osteoclast-mediated resorptive activity. The first run of this assay looked at three new inventive compounds as well as establishing the data on the internal controls, (+/−)-promethazine and Alendronate (bis-phosphonate). The preliminary data on standards and inventive analogs is provided in Table 3, some general SAR (structure-activity relationships) trends are apparent.
The assay is optimized and dose-response data is generated on the Alendronate and Promethazine controls.

[7] = test system: osteoclasts; details: peak of resorption (4 days), n = 8; cited from earlier work
[8] = first run, preliminary data, read-out: OsteoAssay IC50

SMILES: CCN(CC)C(C)CN1c2ccccc2Sc2ccccc21 (racemic) [Ethopropazine racemate, ethopropazine]
- Anti-histamine activity (IL-6 production assay), in words [1]: so effective that resolution of the more active enantiomer could not be determined
- Histamine-stimulated IL-6 production reduced to fraction of that observed with histamine stimulation [1]: approximately one fifth

SMILES: CC(CN1c2ccccc2Sc2ccccc21)N(C)C (racemic) [Promethazine racemate, promethazine]
- Vertebra mg ([2]; 5th lumbar vertebra): 253 ± 24 mg
- Vertebra mm ([2]; 5th lumbar vertebra): 6.3 ± 0.3 mm
- Cn-BV-TV (femur cancellous bone volume) [2]: 12.5 ± 5.6%
- F-BMC (femur bone mineral content) [2]: 336 ± 30 mg
- F-BMC/BW [2]: 1.06 ± 0.06 mg/g
- F-BMD (femur bone mineral density) [2]: 125 ± 14 mg/cm^2
- Femur mg [2]: 716 ± 38 mg
- Femur mm [2]: 34.5 ± 0.7 mm
- Tb-N (trabecular number) [2]: 2.1 ± 0.7 mm^−1
- Tb-Sp (trabecular separation) [2]: 477 ± 215 μm
- Tb-Th (trabecular thickness) [2]: 57.5 ± 7.3 μm
- V-BMC (5th lumbar vertebral bone mineral content) [2]: 100 ± 10 mg
- V-BMD (5th lumbar vertebral bone mineral density) [2]: 108 ± 6 mg/cm^2
- Z score F-BMC [2]: −1.7 ± 0.9
- Annual gain in spinal bone mass [3]: 3%

SMILES: CC(CN(C)C)CN1c2ccccc2Sc2ccccc21 (racemic) [trimeprazine racemate, trimeprazine]
- Anti-histamine activity (IL-6 production assay), in words [1]: so effective that resolution of the more active enantiomer could not be determined

SMILES: CCN(CC)C(C)CN1c2ccccc2Sc2ccccc21.Cl (single isomer, unassigned) [ethopropazine (+) enantiomer]
- Anti-histamine activity (IL-6 production assay), in words [1]: so effective that resolution of the more active enantiomer could not be determined
- Histamine-stimulated IL-6 production reduced to fraction of that observed with histamine stimulation [1]: approximately two fifths

SMILES: CCN(CC)C(C)CN1c2ccccc2Sc2ccccc21.Cl (single isomer, unassigned) [ethopropazine (−) enantiomer]
- Effectiveness relative to the (+) enantiomer (IL-6 reduction) ([1]; ethopropazine): four times
- Effectiveness relative to the racemate (IL-6 reduction) ([1]; ethopropazine): approximately twice
- Histamine-stimulated IL-6 production reduced to fraction of that observed with histamine stimulation [1]: one tenth

SMILES: CC(CN(C)C)CN1c2ccccc2Sc2ccccc21 (single isomer, unassigned) [trimeprazine (+) enantiomer]
- Anti-histamine activity (IL-6 production assay), in words [1]: so effective that resolution of the more active enantiomer could not be determined

SMILES: C[C@H](CN1c2ccccc2Sc2ccccc21)N(C)C [(+)-PMZ, (R)-N,N-dimethyl-1-(10H-phenothiazin-10-yl)propan-2-amine]
- Concentration needed for 90% inhibition of bone resorption compared with the racemate [4]: two orders of magnitude lower
- Efficacy for osteoclast inhibition compared with the racemate and the (−) enantiomer [4]: threefold higher
- inhibition at 0.1 µM ([4]; Osteoclast, 336 h, 10^−7 M, 14 days, read-out: Inhibition of bone resorption): 90%
- Cytotoxicity compared to the racemic mixture [5]: did not have any significant increase in cytotoxicity
- IC50 [6, 8]: < 1 µM

SMILES: C[C@H](CN1c2ccccc2Sc2ccc(C(F)(F)F)cc21)N(C)C [(R)-N,N-dimethyl-1-(2-(trifluoromethyl)-10H-phenothiazin-10-yl)propan-2-amine]
- IC50 [6, 8]: > 10 µM

SMILES: C[C@H](CN1c2ccccc2Sc2ccc(Cl)cc21)N(C)C [(R)-l-(2-chloro-10H-phenothiazin-10-yl)-N,N-dimethylpropan-2-amine]
- IC50 [6, 8]: > 10 µM

SMILES: COc1ccc2c(c1)N(C[C@@H](C)N(C)C)c1ccccc1S2 [(R)-l-(2-methoxy-10H-phenothiazin-10-yl)-N,N-dimethylpropan-2-amine]
- IC50 [6, 8]: < 1 µM

SMILES: NCCCC(O)(P(=O)(O)O)P(=O)(O)O [Alendronate, alendronate]
- IC50 ([6]; optimized assay, dose response, FIG. 13, read-out: IC50, calcium release by osteoclast-mediated resorption): ~10 µM

SMILES: CN/C(=N/CCSCc1nc[nH]c1C)NC#N [Cimetidine, cimetidine]
- Active Osteoclasts (on-bone cells) [7]: 6.2 ± 0.8
- Inactive Osteoclasts (off-bone cells) [7]: 3.1 ± 0.7
- OBIT (OBI, mean interface of the active cells with the bone surface) [7]: 24.7 ± .9
- RS [7]: 14.4 ± 2.0
- Total Osteoclasts [7]: 9.4 ± 1.4

SMILES: COc1ccc(CN(CCN(C)C)c2ccccn2)cc1 [Mepyramine, mepyramine]
- Active Osteoclasts (on-bone cells) [7]: 9.6 ± 0.7
- Inactive Osteoclasts (off-bone cells) [7]: 5.7 ± 0.8
- OBIT (OBI, mean interface of the active cells with the bone surface) [7]: 18.4 ± 0.8
- RS [7]: 17.6 ± 1.3
- Total Osteoclasts [7]: 15.3 ± 1.5

SMILES: C[C@@H](CN1c2ccccc2Sc2ccccc21)N(C)C [promethazine (−) enantiomer, (S)-N,N-dimethyl-1-(10H-phenothiazin-10-yl)propan-2-amine]
- Cytotoxicity compared to the racemic mixture [5]: the same was also true

From patent US20100285087A1, “SINGLE PHENOTHIAZINE ENANTIOMERS AS AGENTS FOR THE PREVENTION OF BONE LOSS” (The University Of Texas, priority 2003, published 2010)
